# Source: publication PMC6931042 (Bioorganic chemistry, 2018)
# Like-named read-outs stand apart in the source and are kept apart here.
# Tests used:
# [1] = system: human lung adenocarcinoma A549; test: Trypan blue exclusion cytotoxicity assay
# [2] = system: chronic myeloid leukemia K-562; test: Trypan blue exclusion cytotoxicity assay
# [3] = read-out: A549 (IC50 μM), trypan blue exclusion, 24 h, mean ± SD
# [4] = read-out: K-562 (IC50 μM), trypan blue exclusion, 24 h, mean ± SD
# [5] = Homo sapiens, A549, 24 h, read-out: A549 (IC50 μM), trypan blue exclusion, mean ± SD
# [6] = Homo sapiens, K562, 24 h, read-out: K-562 (IC50 μM), trypan blue exclusion, mean ± SD
Compound,"IC50 [1, 3] [µM]","IC50 [2, 4] [µM]","IC50 [1, 5] [µM]","IC50 [2, 6] [µM]"
"N.N.[Cl][Pt][Cl] [Cisplatin, reference compound]",15.3 ± 1.87,2.71 ± 0.34,–,–
"Nc1ccc(C(/C=C\c2ccccc2)=NNC(=O)c2cc(-c3ccccc3)nc3ccccc23)cc1 [Compound 9a, N’-((Z)-1-(4-Aminophenyl)-3-phenylallylidene)-2-phenylquinoline-4-carbohydrazide]",–,82.8 ± 3.24,> 100,83
"Nc1ccc(C(/C=C\c2ccccc2)=NNC(=O)c2cc(-c3ccc(Cl)cc3)nc3ccccc23)cc1 [Compound 9b, N’-((Z)-1-(4-Aminophenyl)-3-phenylallylidene)-2-(4-chlorophenyl)quinoline-4-carbohydrazide]",–,–,17.6 ± 2.5,8.96 ± 1.06
"COc1ccc(-c2cc(C(=O)NN=C(/C=C\c3ccccc3)c3ccc(N)cc3)c3ccccc3n2)cc1 [Compound 9c, N’-((Z)-1-(4-Aminophenyl)-3-phenylallylidene)-2-(4-methoxyphenyl)quinoline-4-carbohydrazide]",–,–,16.4 ± 1.3,5.37 ± 0.31
"Cc1ccc(-c2cc(C(=O)NN=C(/C=C\c3ccccc3)c3ccc(N)cc3)c3ccccc3n2)cc1 [Compound 9d, N’-((Z)-1-(4-Aminophenyl)-3-phenylallylidene)-2-(4-methylphenyl)quinoline-4-carbohydrazide]",11.2 ± 0.52,–,11,6.98 ± 0.92
"COc1ccc2nc(-c3ccc(Cl)cc3)cc(C(=O)NN=C(/C=C\c3ccccc3)c3ccc(N)cc3)c2c1 [Compound 9e, N’-((Z)-1-(4-Aminophenyl)-3-phenylallylidene)-2-(4-chlorophenyl)-6-methoxyquinoline-4-carbohydrazide]",–,–,19.2 ± 1.85,5.09 ± 0.19
"COc1ccc(-c2cc(C(=O)NN=C(/C=C\c3ccccc3)c3ccc(N)cc3)c3cc(OC)ccc3n2)cc1 [Compound 9f, N’-((Z)-1-(4-Aminophenyl)-3-phenylallylidene)-2-(4-methoxyphenyl)-6-methoxyquinoline-4-carbohydrazide]",91.4 ± 4.54,81.2 ± 3.14,91,81
"Nc1ccc(C(/C=C\c2ccc(Cl)cc2)=NNC(=O)c2cc(-c3ccccc3)nc3ccccc23)cc1 [Compound 9g, N’-((Z)-1-(4-Aminophenyl)-3-(4-chlorophenyl)allylidene)-2-phenylquinoline-4-carbohydrazide]",18.5 ± 0.52,15.2 ± 2.15,18.5,15.2
"Nc1ccc(C(/C=C\c2ccc(Cl)cc2)=NNC(=O)c2cc(-c3ccc(Cl)cc3)nc3ccccc23)cc1 [Compound 9h, N’-((Z)-1-(4-Aminophenyl)-3-(4-chlorophenyl)allylidene)-2-(4-chlorophenyl)quinoline-4-carbohydrazide]",9.46 ± 0.63,–,9,4.28 ± 0.34
"COc1ccc2nc(-c3ccc(Cl)cc3)cc(C(=O)NN=C(/C=C\c3ccc(Cl)cc3)c3ccc(N)cc3)c2c1 [Compound 9k, N’-((Z)-1-(4-Aminophenyl)-3-(4-chlorophenyl)allylidene)-2-(4-chlorophenyl)-6-methoxyquinoline-4-carbohydrazide]",–,–,> 100,15.2 ± 1.49
"COc1ccc(-c2cc(C(=O)NN=C(/C=C\c3ccc(Cl)cc3)c3ccc(N)cc3)c3cc(OC)ccc3n2)cc1 [Compound 9l, N’-((Z)-1-(4-Aminophenyl)-3-(4-chlorophenyl)allylidene)-2-(4-methoxyphenyl)-6-methoxyquinoline-4-carbohydrazide]",–,–,> 100,5.17 ± 0.18
"COc1ccc(/C=C\C(=NNC(=O)c2cc(-c3ccccc3)nc3ccccc23)c2ccc(N)cc2)cc1 [Compound 9m, N’-((Z)-1-(4-Aminophenyl)-3-(4-methoxyphenyl)allylidene)-2-phenylquinoline-4-carbohydrazide]",–,–,> 100,60.7 ± 2.67
"COc1ccc(/C=C\C(=NNC(=O)c2cc(-c3ccc(Cl)cc3)nc3ccccc23)c2ccc(N)cc2)cc1 [Compound 9n, N’-((Z)-1-(4-Aminophenyl)-3-(4-methoxyphenyl)allylidene)-2-(4-chlorophenyl)quinoline-4-carbohydrazide]",–,–,48.3 ± 1.69,14.4 ± 0.94
"COc1ccc(/C=C\C(=NNC(=O)c2cc(-c3ccc(OC)cc3)nc3ccccc23)c2ccc(N)cc2)cc1 [Compound 9o, N’-((Z)-1-(4-Aminophenyl)-3-(4-methoxyphenyl)allylidene)-2-(4-methoxyphenyl)quinoline-4-carbohydrazide]",–,–,46.5 ± 2.21,10.9 ± 0.74
"COc1ccc(/C=C\C(=NNC(=O)c2cc(-c3ccc(C)cc3)nc3ccccc23)c2ccc(N)cc2)cc1 [Compound 9p, N’-((Z)-1-(4-Aminophenyl)-3-(4-methoxyphenyl)allylidene)-2-(4-methylphenyl)quinoline-4-carbohydrazide]",–,–,33.9 ± 2.15,18 ± 0.97
"COc1ccc(/C=C\C(=NNC(=O)c2cc(-c3ccc(Cl)cc3)nc3ccc(OC)cc23)c2ccc(N)cc2)cc1 [Compound 9q, N’-((Z)-1-(4-Aminophenyl)-3-(4-methoxyphenyl)allylidene)-2-(4-chlorophenyl)-6-methoxyquinoline-4-carbohydrazide]",–,–,97.2 ± 2.36,68.1 ± 2.87
"COc1ccc(/C=C\C(=NNC(=O)c2cc(-c3ccc(OC)cc3)nc3ccc(OC)cc23)c2ccc(N)cc2)cc1 [Compound 9r, N’-((Z)-1-(4-Aminophenyl)-3-(4-methoxyphenyl)allylidene)-2-(4-methoxyphenyl)-6-methoxyquinoline-4-carbohydrazide]",–,–,67.4 ± 2.29,4.45 ± 0.64
"COc1ccc2nc(-c3ccc(Cl)cc3)cc(C(=O)NN=C(/C=C\c3ccc(OC)c(OC)c3)c3ccc(N)cc3)c2c1 [Compound 9s, N’-((Z)-1-(4-Aminophenyl)-3-(3,4-dimethoxyphenyl)allylidene)-2-(4-chlorophenyl)-6-methoxyquinoline-4-carbohydrazide]",–,–,> 100,> 100
"COc1ccc(-c2cc(C(=O)NN=C(/C=C\c3ccc(OC)c(OC)c3)c3ccc(N)cc3)c3cc(OC)ccc3n2)cc1 [Compound 9t, N’-((Z)-1-(4-Aminophenyl)-3-(3,4-dimethoxyphenyl)allylidene)-2-(4-methoxyphenyl)-6-methoxyquinoline-4-carbohydrazide]",–,–,31.6 ± 2.02,23.1 ± 2.15
"O=c1cc(N2CCOCC2)oc2c(-c3ccccc3)cccc12 [LY294002, reference compound]",–,–,3.52,2.68
